Laboratory results reported in article PMC7419507, “In vitro Cas9-assisted editing of modular polyketide synthase genes to produce desired natural product derivatives” (Nature Communications, 2020).
Values joined by “and” are separate entries in the source; they are usually repeats but may differ in a detail not shown here. Equal values may be shown once.

Experiments:
[1] = tested on: human ovarian adenocarcinoma SKOV-3 cells; assay: Cytotoxicity assay (CellTiter-Glo, 72 h), SKOV-3; type: cell-based; conditions: raw replicate data
How it was run: (§1)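 Following 4 h attachment at 1000 cells/well, the three lines received serially halved compound doses (DMSO 0.5%) for 72 h at 37 °C under 5% CO2, with cell viability then determined by CellTiter-Glo.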

[2] = Cytotoxicity assay (CellTiter-Glo, 72 h), SKOV-3; type: cell-based, human; conditions: human, raw replicate data, read-out: SKOV3 viability (%)
How it was run: as §1

[3] = Cytotoxicity assay (CellTiter-Glo, 72 h), Jurkat; type: cell-based; conditions: human, Jurkat cells (T lymphoma), raw data (replicates)
How it was run: as §1

T lymphoma Jurkat cells = assay: Cytotoxicity assay (CellTiter-Glo, 72 h), Jurkat; type: cell-based; conditions: raw data (replicates)
How it was run: as §1

[4] = tested on: Jurkat, SKOV-3 and MESO-1 cells; assay: Cytotoxicity assay, statements for all tested cell lines together; type: cell-based
How it was run: as §1

[5] = Cytotoxicity assay (CellTiter-Glo, 72 h), MESO-1; type: cell-based; conditions: human, MESO-1 malignant pleural mesothelioma cells, raw replicate data, read-out: MESO1 viability (%)
How it was run: as §1

[6] = tested on: malignant pleural mesothelioma MESO-1 cells; assay: Cytotoxicity assay (CellTiter-Glo, 72 h), MESO-1; type: cell-based; conditions: raw replicate data
How it was run: as §1

Structure (SMILES): COC1CC2CCC(C)C(O)(O2)C(=O)C(=O)N2CCCCC2C(=O)OC(C(C)CC2CCC(O)C(OC)C2)CC(=O)C(C)C=C(C)C(O)C(OC)C(=O)C(C)CC(C)C=CCCC=C1C (centres unmarked) [Compound 15, 19,20-dihidro-rapamycin]
- SKOV3 viability (%) ([1]; conc 9.53674e-5 uM): 104.4%
- SKOV3 viability (%) ([1]; conc 0.000190735 uM): 106.7% and 103.7%
- SKOV3 viability (%) ([1]; conc 0.00038147 uM): 104.3% and 105.3%
- SKOV3 viability (%) ([1]; conc 0.000762939 uM): 104.7% and 102.3%
- SKOV3 viability (%) ([1]; conc 0.00152588 uM): 105.8%
- SKOV3 viability (%) ([1]; conc 0.00610352 uM): 104.8% and 103.3%
- SKOV3 viability (%) ([1]; conc 0.012207 uM): 100.2% and 102.5%
- SKOV3 viability (%) ([1]; conc 0.0244141 uM): 99.1% and 104.1%
- SKOV3 viability (%) ([1]; conc 0.0488281 uM): 98.9% and 94.0%
- SKOV3 viability (%) ([1]; conc 0.0976562 uM): 97.9% and 101.5%
- SKOV3 viability (%) ([1]; conc 0.195312 uM): 91.8% and 87.6%
- SKOV3 viability (%) ([1]; conc 0.390625 uM): 93.7% and 87.4%
- SKOV3 viability (%) ([1]; conc 0.78125 uM): 82.2% and 82.5%
- SKOV3 viability (%) ([1]; conc 1.5625 uM): 81.5% and 77.5%
- SKOV3 viability (%) ([1]; conc 3.125 uM): 73.9% and 77.4%
- SKOV3 viability (%) ([1]; conc 6.25 uM): 68.2% and 74.1%
- SKOV3 viability (%) ([1]; conc 12.5 uM): 67.0% and 61.2%
- SKOV3 viability (%) ([1]; conc 25 uM): 54.3% and 53.4%
- SKOV3 viability (%) ([1]; conc 50 uM): 3.9% and 4.5%
- viability at 72 h, 9.53674e-05 uM ([2]; SKOV-3 cells (ovarian adenocarcinoma), conc 9.53674e-5 uM): 106%
- viability at 72 h, 0.000190735 uM ([2]; SKOV-3 cells (ovarian adenocarcinoma), conc 0.000190735 uM): 101%
- viability at 72 h, 0.00038147 uM ([2]; SKOV-3 cells (ovarian adenocarcinoma), conc 0.00038147 uM): 102%
- viability at 72 h, 0.000762939 uM ([2]; SKOV-3 cells (ovarian adenocarcinoma), conc 0.000762939 uM): 102%
- viability at 72 h, 0.00152588 uM ([2]; SKOV-3 cells (ovarian adenocarcinoma), conc 0.00152588 uM): 105%
- viability at 72 h, 0.00305176 uM ([2]; SKOV-3 cells (ovarian adenocarcinoma), conc 0.00305176 uM): 108%
- viability at 72 h, 0.00610352 uM ([2]; SKOV-3 cells (ovarian adenocarcinoma), conc 0.00610352 uM): 104%
- viability at 72 h, 0.012207 uM ([2]; SKOV-3 cells (ovarian adenocarcinoma), conc 0.012207 uM): 106%
- viability at 72 h, 0.0244141 uM ([2]; SKOV-3 cells (ovarian adenocarcinoma), conc 0.0244141 uM): 102%
- viability at 72 h, 0.0488281 uM ([2]; SKOV-3 cells (ovarian adenocarcinoma), conc 0.0488281 uM): 95.2%
- viability at 72 h, 0.0976562 uM ([2]; SKOV-3 cells (ovarian adenocarcinoma), conc 0.0976562 uM): 99.4%
- viability at 72 h, 0.195312 uM ([2]; SKOV-3 cells (ovarian adenocarcinoma), conc 0.195312 uM): 91%
- viability at 72 h, 0.390625 uM ([2]; SKOV-3 cells (ovarian adenocarcinoma), conc 0.390625 uM): 84.3%
- viability at 72 h, 12.5 uM ([2]; SKOV-3 cells (ovarian adenocarcinoma), conc 12.5 uM): 63.5%
- viability at 72 h, 25 uM ([2]; SKOV-3 cells (ovarian adenocarcinoma), conc 25 uM): 51.1%
- viability at 72 h, 50 uM ([2]; SKOV-3 cells (ovarian adenocarcinoma), conc 50 uM): 4%
- viability at 72 h, 0.78125 uM ([2]; SKOV-3 ovarian adenocarcinoma cells, conc 0.78125 uM): 77.1%
- viability at 72 h, 1.5625 uM ([2]; SKOV-3 ovarian adenocarcinoma cells, conc 1.5625 uM): 85.7%
- viability at 72 h, 3.125 uM ([2]; SKOV-3 ovarian adenocarcinoma cells, conc 3.125 uM): 72.5%
- viability at 72 h, 6.25 uM ([2]; SKOV-3 ovarian adenocarcinoma cells, conc 6.25 uM): 65.8%
- viability at 72 h, 9.53674e-05 uM ([3]; conc 9.53674e-5 uM): 98.3%
- viability at 72 h, 0.000190735 uM ([3]; conc 0.000190735 uM): 102%
- viability at 72 h, 0.00038147 uM ([3]; conc 0.00038147 uM): 96.7%
- viability at 72 h, 0.000762939 uM ([3]; conc 0.000762939 uM): 101%
- viability at 72 h, 0.00152588 uM ([3]; conc 0.00152588 uM): 97.4%
- viability at 72 h, 0.00305176 uM ([3]; conc 0.00305176 uM): 94.6%
- viability at 72 h, 0.00610352 uM ([3]; conc 0.00610352 uM): 96.3%
- viability at 72 h, 0.012207 uM ([3]; conc 0.012207 uM): 95.5%
- viability at 72 h, 0.0244141 uM ([3]; conc 0.0244141 uM): 98.5%
- viability at 72 h, 0.0488281 uM ([3]; conc 0.0488281 uM): 84.9%
- viability at 72 h, 0.0976562 uM ([3]; conc 0.0976562 uM): 83.5%
- viability at 72 h, 0.195312 uM ([3]; conc 0.195312 uM): 65.5%
- viability at 72 h, 0.390625 uM ([3]; conc 0.390625 uM): 61.7%
- viability at 72 h, 0.78125 uM ([3]; conc 0.78125 uM): 43.6%
- viability at 72 h, 1.5625 uM ([3]; conc 1.5625 uM): 40.7%
- viability at 72 h, 3.125 uM ([3]; conc 3.125 uM): 28.2%
- viability at 72 h, 6.25 uM ([3]; conc 6.25 uM): 26.6%
- viability at 72 h, 12.5 uM ([3]; conc 12.5 uM): 25.9%
- viability at 72 h, 25 uM ([3]; conc 25 uM): 1%
- Jurkat viability (%) (T lymphoma Jurkat cells; conc 9.53674e-5 uM): 103.4% and 100.1%
- Jurkat viability (%) (T lymphoma Jurkat cells; conc 0.000190735 uM): 103.2%
- Jurkat viability (%) (T lymphoma Jurkat cells; conc 0.00038147 uM): 100.9% and 97.1%
- Jurkat viability (%) (T lymphoma Jurkat cells; conc 0.000762939 uM): 96.9%
- Jurkat viability (%) (T lymphoma Jurkat cells; conc 0.00152588 uM): 95.1% and 104.8%
- Jurkat viability (%) (T lymphoma Jurkat cells; conc 0.00305176 uM): 96.4% and 103.3%
- Jurkat viability (%) (T lymphoma Jurkat cells; conc 0.00610352 uM): 98.6% and 98.2%
- Jurkat viability (%) (T lymphoma Jurkat cells; conc 0.012207 uM): 89.1% and 95.4%
- Jurkat viability (%) (T lymphoma Jurkat cells; conc 0.0244141 uM): 88.3% and 94.3%
- Jurkat viability (%) (T lymphoma Jurkat cells; conc 0.0488281 uM): 80.5% and 86.7%
- Jurkat viability (%) (T lymphoma Jurkat cells; conc 0.0976562 uM): 80.2% and 77.6%
- Jurkat viability (%) (T lymphoma Jurkat cells; conc 0.195312 uM): 65.6% and 66.3%
- Jurkat viability (%) (T lymphoma Jurkat cells; conc 0.390625 uM): 56.5% and 56.0%
- Jurkat viability (%) (T lymphoma Jurkat cells; conc 0.78125 uM): 41.6% and 42.0%
- Jurkat viability (%) (T lymphoma Jurkat cells; conc 1.5625 uM): 32.3% and 35.9%
- Jurkat viability (%) (T lymphoma Jurkat cells; conc 3.125 uM): 27.6% and 27.0%
- Jurkat viability (%) (T lymphoma Jurkat cells; conc 6.25 uM): 24.6% and 25.7%
- Jurkat viability (%) (T lymphoma Jurkat cells; conc 12.5 uM): 23.9% and 25.0%
- Jurkat viability (%) (T lymphoma Jurkat cells; conc 25 uM): 1.5% and 1.1%
- Jurkat viability (%) (T lymphoma Jurkat cells; conc 50 uM): 0.429% and 0.113% and 0.047%
- Effect on cell viability, in words ([4]; Jurkat, SKOV-3 and MESO-1 cells, 72 h): slightly suppressed the cell viabilities
- Cytostatic effect, fold lower than that of 1 ([4]; relative to rapamycin (1)): ~ 100 fold
- viability at 72 h, 9.53674e-05 uM ([5]; conc 9.53674e-5 uM): 94.1%
- viability at 72 h, 0.000190735 uM ([5]; conc 0.000190735 uM): 92%
- viability at 72 h, 0.00038147 uM ([5]; conc 0.00038147 uM): 98.8%
- viability at 72 h, 0.000762939 uM ([5]; conc 0.000762939 uM): 93.3%
- viability at 72 h, 0.00152588 uM ([5]; conc 0.00152588 uM): 97.7%
- viability at 72 h, 0.00305176 uM ([5]; conc 0.00305176 uM): 89.3%
- viability at 72 h, 0.00610352 uM ([5]; conc 0.00610352 uM): 90.8%
- viability at 72 h, 0.012207 uM ([5]; conc 0.012207 uM): 87.6%
- viability at 72 h, 0.0244141 uM ([5]; conc 0.0244141 uM): 92.1%
- viability at 72 h, 0.0488281 uM ([5]; conc 0.0488281 uM): 82.9%
- viability at 72 h, 0.0976562 uM ([5]; conc 0.0976562 uM): 81.6%
- viability at 72 h, 0.195312 uM ([5]; conc 0.195312 uM): 70.6%
- viability at 72 h, 0.390625 uM ([5]; conc 0.390625 uM): 78.2%
- viability at 72 h, 0.78125 uM ([5]; conc 0.78125 uM): 66.4%
- viability at 72 h, 1.5625 uM ([5]; conc 1.5625 uM): 69.2%
- viability at 72 h, 3.125 uM ([5]; conc 3.125 uM): 67.6%
- viability at 72 h, 6.25 uM ([5]; conc 6.25 uM): 68.9%
- viability at 72 h, 12.5 uM ([5]; conc 12.5 uM): 63.9%
- viability at 72 h, 50 uM ([5]; conc 50 uM): 0.6%
- MESO1 viability (%) ([6]; conc 9.53674e-5 uM): 97.4% and 107.3%
- MESO1 viability (%) ([6]; conc 0.000190735 uM): 96.0% and 92.6%
- MESO1 viability (%) ([6]; conc 0.00038147 uM): 101.5% and 100.0%
- MESO1 viability (%) ([6]; conc 0.000762939 uM): 86.7% and 94.3%
- MESO1 viability (%) ([6]; conc 0.00152588 uM): 92.8% and 93.2%
- MESO1 viability (%) ([6]; conc 0.00305176 uM): 90.6%
- MESO1 viability (%) ([6]; conc 0.00610352 uM): 91.6% and 97.1%
- MESO1 viability (%) ([6]; conc 0.012207 uM): 80.5%
- MESO1 viability (%) ([6]; conc 0.0244141 uM): 89.5% and 86.4%
- MESO1 viability (%) ([6]; conc 0.0488281 uM): 83.3% and 88.8%
- MESO1 viability (%) ([6]; conc 0.0976562 uM): 82.7% and 83.7%
- MESO1 viability (%) ([6]; conc 0.195312 uM): 70.8% and 80.6%
- MESO1 viability (%) ([6]; conc 0.390625 uM): 69.4% and 71.4%
- MESO1 viability (%) ([6]; conc 0.78125 uM): 68.2% and 67.7%
- MESO1 viability (%) ([6]; conc 1.5625 uM): 70.1% and 68.2%
- MESO1 viability (%) ([6]; conc 3.125 uM): 66.5%
- MESO1 viability (%) ([6]; conc 6.25 uM): 67.5% and 68.1%
- MESO1 viability (%) ([6]; conc 12.5 uM): 65.8% and 62.8%
- MESO1 viability (%) ([6]; conc 25 uM): 15.9% and 37.2% and 39.7%
- MESO1 viability (%) ([6]; conc 50 uM): 0.367% and 0.476%
